We go through 15 molecules from patent US20260337153A1, “IONIZABLE AMINE LIPIDS” (Intellia Therapeutics, Inc., priority 2023, published 2026).

SMILES strings stand for the structures.

The nature of one series: LNP average particle size and polydispersity by dynamic light scattering. Type of series: physicochemical. The following applies: LNP with 50% ionizable lipid, 38% cholesterol, 9% DSPC, 3% C13 Ether (LNP #1, Compound 53: 3% PEG2K-DMG instead); sgRNA:mRNA 1:2. On the procedure:
Dynamic Light Scattering (“DLS”) is used to characterize the polydispersity index (“pdi” or “PDI”) and size of the LNPs of the present disclosure. DLS measures the scattering of light that results from subjecting a sample to a light source. PDI, as determined from DLS measurements, represents the distribution of particle size (around the mean particle size) in a population, with a perfectly uniform population having a PDI of zero.
LNP compositions are analyzed for average particle size, polydispersity index (pdi), total RNA content, encapsulation efficiency of RNA, and zeta potential. LNP compositions may be further characterized by lipid analysis, AF4-MALS, NTA, and/or cryo-EM.
Average particle size and polydispersity are measured by dynamic light scattering (DLS) using a Malvern Zetasizer DLS instrument. LNP samples were diluted with PBS buffer prior to being measured by DLS. Z-average diameter (“Z-avg”) which is an intensity-based measurement of average particle size was reported along with number average diameter (“number mean”) and PDI. A Malvern Zetasizer instrument is also used to measure the zeta potential of the LNP. Samples are diluted 1:17 (50 μL into 800 μL) in 0.1×PBS, pH 7.4 prior to measurement.
In vivo editing efficiency for materials delivered with formulations including various amine lipid (or ionizable lipid) compounds in Experiments 1 through 14 as described in Tables 3 and 4 was assessed. Editing was measured using G000534 (SEQ ID NO: 5) which targets the rat TTR gene. Lipids described above were assessed for efficacy through in vivo editing experiments. LNPs were formulated at a 1:2 w/w ratio of sgRNA (SEQ ID NO: 5) and Cas9 mRNA (SEQ ID NO: 3). In Experiments 1 through 13, lipid components of the LNP are formulated in a molar ratio of 50% ionizable lipid, 38% cholesterol, 9% DSPC, and 3% PEG2K-DMG. In Experiment 14, lipid components of the LNP are formulated in a molar ratio of 50% ionizable lipid, 38% cholesterol, 9% DSPC, and 3% C13 Ether. The final LNPs used in different in vivo editing experiments were characterized to determine the encapsulation efficiency (% E), polydispersity index (PDI), and average particle size (Z-avg and number mean) according to the analytical methods provided above. The pKa values of each of the following ionizable lipids were also measured to be in the range of about 5.8 to about 7.6.
In vivo editing efficiency for materials delivered with formulations including various combinations of amine lipid (or ionizable lipid) and PEG lipid compounds was assessed as described in Tables 5 and 6. Editing was measured using G000534 (SEQ ID NO: 5) which targets the rat TTR gene. Lipids described above were assessed for efficacy through in vivo editing experiments. LNPs were formulated at a 1:2 w/w ratio of sgRNA (SEQ ID NO: 5) and Cas9 mRNA (SEQ ID NO:3). Lipid components of the LNP are formulated in a molar ratio of 50% ionizable lipid, 38% cholesterol, 9% DSPC, and 3% of various PEG lipids (e.g., PEG2K-DMG, C13 Ether, C14 Ether). The final LNPs used in different in vivo editing experiments were characterized to determine the encapsulation efficiency (% E), polydispersity index (PDI), and average particle size (Z-avg and number mean) according to the analytical methods provided above. The pKa values of each of the following ionizable lipids were also measured to be in the range of about 5.8 to about 7.6.
In vivo editing efficiency for materials delivered with formulations including various amine lipid (or ionizable lipid) compounds as described in Tables 7 and 8 was assessed. Editing was measured using G000534 (SEQ ID NO: 5) which targets the rat TTR gene. Lipids described above were assessed for efficacy through in vivo editing experiments. LNPs were formulated at a 1:2 w/w ratio of sgRNA (SEQ ID NO: 5) and Cas9 mRNA (SEQ ID NO: 3). Lipid components of the LNP were formulated in a molar ratio of 50% ionizable lipid, 38% cholesterol, 9% DSPC, and 3% C13 Ether. […]
In the case of `CCCCCCCCC(CCCCCCCC)OC(=O)CCCC(=O)OCC(COC(=O)CCCC(=O)OC(CCCCCCCC)CCCCCCCC)COC(=O)OCCCN1CCCC1` [Compound 33, di(heptadecan-9-yl) O,O′-(2-((((3-(pyrrolidin-1-yl)propoxy)carbonyl)oxy)methyl)propane-1,3-diyl) diglutarate], the “Number mean (average particle size)” value is 60 nm, the “PDI (polydispersity index)” value came out at 0.01 and the “Z-avg (average particle size)” value is listed as 73 nm.
In the same order, the values of `CCCCCCCCC(CCCCCCCC)OC(=O)CCCCCCC(=O)OCC(COC(=O)CCCCCCC(=O)OC(CCCCCCCC)CCCCCCCC)COC(=O)NCCN(CC)CC` [Compound 52, O′1,O1-(2-((((2-(diethylamino)ethyl)carbamoyl)oxy)methyl)propane-1,3-diyl) 8,8′-di(heptadecan-9-yl) di(octanedioate)] are 74 nm, 0.02 and 88 nm.

The series is the same for the next values; noted with them: Table 3, Experiment 14; LNP with 3% C13 Ether; sgRNA:mRNA 1:2.
As to `CCCCCCCCC(CCCCCCCC)OC(=O)CCCC(=O)OCC(COC(=O)CCCC(=O)OC(CCCCCCCC)CCCCCCCC)COC(=O)CCCN(C)C` [Compound 34, O,O′-(2-(((4-(dimethylamino)butanoyl)oxy)methyl)propane-1,3-diyl) di(heptadecan-9-yl) diglutarate], the Number mean is 61 nm, the PDI is listed as 0.032 and the Z-avg is 69 nm.
For `CCCCCCCCC(CCCCCCCC)OC(=O)CCCC(=O)OCC(COC(=O)CCCC(=O)OC(CCCCCCCC)CCCCCCCC)OC(=O)NCCN(CC)CC` [Compound 35, O,O′-(2-(((2-(diethylamino)ethyl)carbamoyl)oxy)propane-1,3-diyl) di(heptadecan-9-yl) diglutarate] the same measures were 67 nm, 0.019 and 76 nm.
For `CCCCCCCCC(CCCCCCCC)C(=O)OCC(COC(=O)NCCN(CC)CC)COC(=O)C(CCCCCCCC)CCCCCCCC` [Compound 40, 2-((((2-(diethylamino)ethyl)carbamoyl)oxy)methyl)propane-1,3-diyl bis(2-octyldecanoate)] the same measures were 48 nm, 0.062 and 57 nm.

The series is the same for the next values; noted with them: Table 3, Experiments 1-13; LNP 50% ionizable lipid, 38% cholesterol, 9% DSPC, 3% PEG2K-DMG; sgRNA:mRNA 1:2.
As for `CCCCCCCCC(CCCCCCCC)OC(=O)CCCC(=O)OCC(COC(=O)CCCC(=O)OC(CCCCCCCC)CCCCCCCC)COC(=O)OCCCN(C)C` [Compound 31, O,O′-(2-((((3-(dimethylamino)propoxy)carbonyl)oxy)methyl)propane-1,3-diyl) di(heptadecan-9-yl) diglutarate], the Number mean worked out at 59 nm, the PDI stood at 0.003 and the Z-avg is given as 64 nm.
As to `CCCCCCCCC(CCCCCCCC)OC(=O)CCCC(=O)OCC(COC(=O)CCCC(=O)OC(CCCCCCCC)CCCCCCCC)COC(=O)OCCCN1CCCCC1` [Compound 32, di(heptadecan-9-yl) O,O′-(2-((((3-(piperidin-1-yl)propoxy)carbonyl)oxy)methyl)propane-1,3-diyl) diglutarate], the Number mean is reported as 59 nm, the PDI worked out at 0.008 and the Z-avg was determined as 63 nm.
For the molecule `CCCCCCCCC(CCCCCCCC)OC(=O)CCCC(=O)OCC(COC(=O)CCCC(=O)OC(CCCCCCCC)CCCCCCCC)COC(=O)OCCCN1CCCC1` [Compound 33, di(heptadecan-9-yl) O,O′-(2-((((3-(pyrrolidin-1-yl)propoxy)carbonyl)oxy)methyl)propane-1,3-diyl) diglutarate], the Number mean is listed as 66 nm, the PDI was determined as 0.023 and the Z-avg was determined as 71 nm.
For the molecule `CCCCCCCCC(CCCCCCCC)OC(=O)CCCC(=O)OCC(C)(COC(=O)CCCC(=O)OC(CCCCCCCC)CCCCCCCC)COC(=O)NCCN(CC)CC` [Compound 36, O,O′-(2-((((2-(diethylamino)ethyl)carbamoyl)oxy)methyl)-2-methylpropane-1,3-diyl) di(heptadecan-9-yl) diglutarate], the Number mean is given as 87 nm, the PDI was 0.056 and the Z-avg worked out at 103 nm.
On to `CCCCCCC(CCCCCC)OC(=O)CCCC(=O)OCC(COC(=O)CCCC(=O)OC(CCCCCC)CCCCCC)COC(=O)NCCN(CC)CC` [Compound 37, O,O′-(2-((((2-(diethylamino)ethyl)carbamoyl)oxy)methyl)propane-1,3-diyl) di(tridecan-7-yl) diglutarate], for which the Number mean is recorded as 71 nm, the PDI amounted to 0.014 and the Z-avg stood at 78 nm.
In the same order, the values of `CCCCCCCCCCCC(=O)OCC(COC(=O)CCC(OCCCCCCCC)OCCCCCCCC)COC(=O)OCCCN(CC)CC` (stereo not drawn) [Compound 41, 3-((4,4-bis(octyloxy)butanoyl)oxy)-2-((((3-(diethylamino)propoxy)carbonyl)oxy)methyl)propyl Dodecanoate] are 75 nm, 0.05 and 83 nm.
In the same order, the values of `CCCCCCCCOC(CCC(=O)OCC(COC(=O)CC(CCCC)CCCCCC)COC(=O)OCCCN(CC)CC)OCCCCCCCC` (stereo not drawn) [Compound 43, 3-((4,4-bis(octyloxy)butanoyl)oxy)-2-((((3-(diethylamino)propoxy)carbonyl)oxy)methyl)propyl 3-butylnonanoate] are 75 nm, 0.04 and 85 nm.
As for `CCCCCCCCOC(CCC(=O)OCC(COC(=O)NCCN(CC)CC)COC(=O)C(CCCC)CCCCCC)OCCCCCCCC` (stereo not drawn) [Compound 48, 3-((4,4-bis(octyloxy)butanoyl)oxy)-2-((((2-(diethylamino)ethyl)carbamoyl)oxy)methyl)propyl 2-butyloctanoate], the Number mean was 81 nm, the PDI came out at 0.02 and the Z-avg was 87 nm.
In the same order, the values of `CCCCC/C=C\C/C=C\CCCCCCCC(=O)OCC(COC(=O)CCCC(=O)OC(CCCCCCCC)CCCCCCCC)COC(=O)N(C)CCN(CC)CC` (stereo not drawn) [Compound 49, 3-(((2-(diethylamino)ethyl)(methyl)carbamoyl)oxy)-2-((((9Z,12Z)-octadeca-9,12-dienoyl)oxy)methyl)propyl heptadecan-9-yl Glutarate] are 87 nm, 0.01 and 91 nm.
In the case of `CCCCC/C=C\C/C=C\CCCCCCCC(=O)OCC(COC(=O)CCCC(=O)OC(CCCCCCCC)CCCCCCCC)COC(=O)NCCN1CCCCCC1` (stereo not drawn) [Compound 50, 3-(((2-(azepan-1-yl)ethyl)carbamoyl)oxy)-2-((((9Z,12Z)-octadeca-9,12-dienoyl)oxy)methyl)propyl heptadecan-9-yl Glutarate], the Number mean came to 66 nm, the PDI is listed as 0.02 and the Z-avg is reported as 74 nm.
For `CCCCCCCCC(CCCCCCCC)OC(=O)CCCCCC(=O)OCC(CCCCCCCCC(=O)OCC(CCCC)CCCCCC)COC(=O)NCCN(CC)CC` (stereo not drawn) [Compound 51, 1-(11-((2-butyloctyl)oxy)-2-((((2-(diethylamino)ethyl)carbamoyl)oxy)methyl)-11-oxoundecyl) 7-(heptadecan-9-yl) heptanedioate] the same measures were 81 nm, 0.03 and 90 nm.
For the molecule `CCCCCCCCC(CCCCCCCC)OC(=O)CCCCCCC(=O)OCC(COC(=O)CCCCCCC(=O)OC(CCCCCCCC)CCCCCCCC)COC(=O)NCCN(CC)CC` [Compound 52, O′1,O1-(2-((((2-(diethylamino)ethyl)carbamoyl)oxy)methyl)propane-1,3-diyl) 8,8′-di(heptadecan-9-yl) di(octanedioate)], the Number mean is listed as 79 nm, the PDI was 0.03 and the Z-avg came to 87 nm.

Staying with this series, now noted: Table 7; LNP with 3% C13 Ether; sgRNA:mRNA 1:2.
For `CCCCCCCCC(CCCCCCCC)OC(=O)CCCCCCC(=O)OCC(COC(=O)CCCCCCC(=O)OC(CCCCCCCC)CCCCCCCC)COC(=O)NCCN(CC)CC` [Compound 52, O′1,O1-(2-((((2-(diethylamino)ethyl)carbamoyl)oxy)methyl)propane-1,3-diyl) 8,8′-di(heptadecan-9-yl) di(octanedioate)], the Number mean is reported as 79 nm, the PDI is listed as 0.01 and the Z-avg is reported as 85 nm.
